Tested on: Drosophila heart
Test: Effects of anesthesia on heart rate
Type: in vivo, Drosophila melanogaster
Conditions: for effect of anesthesia on heart rate (in words): anesthetized Drosophila
From the text: […] The flies are removed from the vial as soon as they are immobile.
A more preferred aspect the microscope is a Nikon Diaphot-TMD inverted microscope, with Nomarski (DIC) optics (without analyzer) and a 10×(N.A. 0.25) objective. Preferably, images are obtained by closing the field diaphragm, so that the light-beam is concentrated on the first ventricle of the fly's heart, and the intensity of the light-beam is increased to the maximum. Most preferably, the flies are positioned on their backs, approximately perpendicular to the light path, and fixed in this position by mounting the spread wings on a glass slide with double-stick tape. Images of the first cardiac ventricle are recorded using a Sony DXC-101 video camera on VHS tape, or using a similar recording apparatus, and the heart rate is measured from slow-motion replays. End-diastolic and end-systolic dimensions are measured on still images at the mid-point between the two major transversal tracheal tubes passing over the first cardiac ventricle. The images can also be analyzed by appropriate image analysis software. In certain aspects of the present invention semi-automated digital image processing is used to measure heart rate and its variation directly from video signals recorded in a single fly or multiple flies. Automated detection allows parameters such as heart rate variability to be detected in a single fly. […] For each fly 2-second video sequences (60 frames each) 10 times consecutively are acquired. […] After applying a low pass filter to reduce noise in the time-space signal, heart rate is estimated by automated counting of the peaks in the signal. […] An average and a standard deviation of the repetitions in the same fly, for example (i.e. about 10 repetitions) are obtained and the coefficient of variation is calculated (Armitage P, Berry G. Statistical Methods in Medical Research. 3rd ed. Oxford: Blackwell Scientific; 1994).
CO2 the most commonly employed anesthetic for Drosophila.

SMILES	effect of anesthesia on heart rate (in words)	heart rate immediately after anesthesia (immediately after ether anesthesia, n=5)	heart rate after 30–40 min when leg movements began to return (same flies after 30–40 min, n=5, p=0.001)	resumption of heart beat after cessation of gas exposure (n=10)	heart rate immediately after anesthesia (older flies, 48 days, n=7, first value)	heart rate after recovery under the same conditions (older flies, 48 days, n=7, second value)	heart rate immediately after anesthesia (young flies, 10 days, n=6, first value)	heart rate after recovery under the same conditions (young flies, 10 days, n=6, second value)
CCOCC [Ethyl-ether]	depress heart rate	120±19 beats per minute	248±11 beats per minute					
O=C=O [CO2]	cardiac arrest within a few seconds			20 to 30 s				
CCN(CC)CC [triethylamine]	not cause significant changes in heart rate				213±6 beats per minute	211±11 beats per minute	283±6 beats per minute	282±4 beats per minute
